Source: US5965699A (priority 1996, dated 1999)
Where a SMILES comes first, the peptide text is derived from it. [ ]: non-standard residue; d: D form. Abu = CC[C@H](N)C(=O)O

What was measured:
botox A [1] = biological target: T1, botox A (Clostridium botulinum, UniProt P0DPI1)
botox A [2] = biological target: T1, botox A; assay type: biochemical; conditions: for kcat: in 1/s; for Km: read-out: Km
botox A [3] = biological target: T1, botox A; assay: biochemical; conditions: for inhibition at 1000 µM: read-out: inhibition of hydrolysis of peptide [1-17]

T1 sequence (P0DPI1 2-448 limits assumed): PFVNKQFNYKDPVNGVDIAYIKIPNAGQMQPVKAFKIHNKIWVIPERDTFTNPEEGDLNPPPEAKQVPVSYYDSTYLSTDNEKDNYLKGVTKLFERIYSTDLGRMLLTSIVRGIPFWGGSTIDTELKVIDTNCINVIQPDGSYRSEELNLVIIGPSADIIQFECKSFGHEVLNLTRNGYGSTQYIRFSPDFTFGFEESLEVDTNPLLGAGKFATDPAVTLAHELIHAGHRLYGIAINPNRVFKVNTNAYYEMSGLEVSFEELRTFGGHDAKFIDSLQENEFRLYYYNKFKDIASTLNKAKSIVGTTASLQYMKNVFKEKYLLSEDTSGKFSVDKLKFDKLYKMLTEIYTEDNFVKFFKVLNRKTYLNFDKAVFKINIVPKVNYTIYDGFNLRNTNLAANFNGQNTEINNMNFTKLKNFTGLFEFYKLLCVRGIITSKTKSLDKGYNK

Row | Compound | effect on hydrolysis of substrate peptides by botox A (botox A [1]) | Relative Rate (initial hydrolysis rates relative to peptide [1-17]) (botox A [2]) | hydrolysis by botox A, described in words (botox A [2]) | kcat (botox A [2]) | inhibition at 1000 µM (botox A [3]) [%] | further results
1 | gelatin | no effect |  |  |  |  | 
2 | Ac-SNKTRIDEANQRATK-NH2 [[1-15], S N K T R I D E A N Q R A T K] |  | 0.03 | very slow rate of hydrolysis | ~1.0 | 17 | kcat as percent of that for peptide [1-17] (botox A [2]): 2-3%
3 | ribonuclease | no effect |  |  |  |  | 
4 | CC[C@H](NC(=O)[C@H](CCC(=O)O)NC(=O)[C@H](CC(=O)O)NC(=O)[C@@H](NC(=O)[C@H](CCCNC(=N)N)NC(=O)[C@@H](NC(=O)[C@H](CCCCN)NC(=O)[C@H](CC(N)=O)NC(=O)[C@H](CO)NC(C)=O)[C@@H](C)O)[C@@H](C)CC)C(=O)N[C@@H](CC(N)=O)C(=O)N[C@@H](CCC(N)=O)C(=O)N[C@@H](CCCNC(=N)N)C(=O)N[C@@H](C)C(=O)N[C@H](C(=O)N[C@@H](CCCCN)C(=O)N[C@@H](CCSC)C(=O)N[C@@H](CC(C)C)C(N)=O)[C@@H](C)O [A9B, S N K T R I D E B N Q R A T K M L] (Ac-SNKTRIDE[Abu]NQRATKML-NH2) |  |  | still a good substrate | 11 ± 1 |  | decrease in kcat compared with peptide [1-17] (botox A [2]): about 75%; Km (botox A [2]): 1100 ± 100 µM
5 | Ac-SNKTRIDEANQRLTKML-NH2 [A13L, S N K T R I D E A N Q R L T K M L] |  |  | below the limits of detection |  | 30 | Ki (botox A [3]): 1000 to 2000 µM
6 | lysozyme | no effect |  |  |  |  | 
7 | Ac-SNKTRIDEANARATKML-NH2 [Q11A, S N K T R I D E A N A R A T K M L] |  | 0.19 | slowed but did not eliminate hydrolysis |  |  | 
8 | Ac-SNKTRIDEAAQRATKML-NH2 [N10A, S N K T R I D E A A Q R A T K M L] |  |  | only very slowly cleaved | 1.8 ± 0.1 | 30 | kcat as percent of that for peptide [1-17] (botox A [2]): about 4%
9 | Ac-SNKTRIDEANQRATKM-NH2 [[1-16], S N K T R I D E A N Q R A T K M] |  | .17 | excellent substrate | 6 ± 4 |  | Km (botox A [2]): 1600 ± 100 µM
10 | ovalbumin | no effect |  |  |  |  | 
